Entries after “also recorded” stand apart in the source; their conditions may differ. Like-named read-outs stand apart in the source and are kept apart here. One block for each compound: values may come before it.
Columns and labels:
[1] = target: T1, human D1 dopamine receptor (clone HGL26) (Homo sapiens, UniProt P21728); assay: Competition for [^125 I]SCH23982 binding to membranes of COS-7 cells expressing HGL26; set-up: a 2.3 kb EcoRI-XbaI restriction fragment containing the open reading frame was subcloned into the expression vector pCMV5; expressed in transfected cells; host or cells: African green monkey kidney COS-7 cells, transient, pCMV5
T1 sequence (P21728 whole entry, the tested form may be a part): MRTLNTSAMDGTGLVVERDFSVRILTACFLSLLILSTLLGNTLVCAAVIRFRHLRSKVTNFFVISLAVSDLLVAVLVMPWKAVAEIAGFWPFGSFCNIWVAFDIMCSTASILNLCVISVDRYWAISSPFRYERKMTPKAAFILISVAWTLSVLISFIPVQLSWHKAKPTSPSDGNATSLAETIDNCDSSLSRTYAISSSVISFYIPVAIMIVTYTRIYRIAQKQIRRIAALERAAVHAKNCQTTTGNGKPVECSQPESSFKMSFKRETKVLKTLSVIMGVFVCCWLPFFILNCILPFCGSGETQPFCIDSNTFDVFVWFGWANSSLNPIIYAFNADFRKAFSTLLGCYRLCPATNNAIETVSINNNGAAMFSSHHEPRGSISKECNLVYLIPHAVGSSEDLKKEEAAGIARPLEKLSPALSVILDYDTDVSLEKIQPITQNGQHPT

[2] = target: T1, human D1 dopamine receptor (clone HGL26); assay: Adenylyl cyclase activity in membranes of mouse fibroblasts [L-M(TK^-)] expressing HGL26; assay type: biochemical; conditions: for block of dopamine-stimulated adenylyl cyclase activity: dopamine 100 μM, SCH23390 and raclopride 1 μM each
[3] = target: T2, human D1 dopamine receptor (clone HGR213-1) (Homo sapiens, UniProt P21728); assay: cAMP accumulation in human embryonic kidney 293 cells transfected with HGR213-1
T2 sequence (P21728 whole entry): as the sequence (P21728 whole entry, the tested form may be a part) above

[4] = target: T2, human D1 dopamine receptor (clone HGR213-1); assay type: binding; set-up: expressed in transfected cells; host or cells: monkey kidney COS-7 cells, transient, PBC12BI; conditions: FIG. 4 competition curves
[5] = tested on: untransfected COS-7 cells; assay: Specific binding of [^3 H]SCH23390 to untransfected COS-7 cells; set-up: species or system monkey; conditions: data not shown
Procedure: Membranes were prepared by homogenizing cells with a ConTorque homogenizer at 4° C. in TEM buffer. The homogenate was centrifuged at 800 g for 10 min and the pellet was subjected to a second homogenization and centrifugation. Supernatants were pooled and centrifuged at 100,000 g for 1 h. The pellet was then resuspended in TEM buffer at appropriate protein concentration and stored in small aliquots at -70° C. […] Binding was initiated by the addition of membrane preparation (20-30 μg protein) and carried on at 30° C. for 1 h. Nonspecific binding was defined in the presence of 10 μM (+)Butaclamol. The samples were filtered through glass fiber filters (Schleicher and Schuell No.32) and washed three times with 4 ml ice-cold 10 mM Tris pH 7.4. The radioactivity retained on the filter was counted using a Beckman LS6800 scintillation counter. […] See J. Bunzow et al., Nature 336,783 (1988). […] A LIGAND computer program was used for data analysis and curve fitting.

[6] = target: T1, human D1 dopamine receptor (clone HGL26); assay: Saturation binding of [^125 I]SCH23982 to membranes of COS-7 cells expressing HGL26; set-up: a 2.3 kb EcoRI-XbaI restriction fragment containing the open reading frame was subcloned into the expression vector pCMV5; expressed in transfected cells; host or cells: African green monkey kidney COS-7 cells, transient, pCMV5; conditions: transfected COS-7 membranes vs antisense construct
Procedure: To identify the protein encoded by genomic clone HGL26, a 2.3 kb EcoRI-XbaI restriction fragment containing the open reading frame was subcloned into the expression vector pCMV5 and transiently transfected into African green monkey kidney (COS-7) cells. See Andersson, S. et al., J. Biol. Chem. 264, 8222-8229 (1989). The DEAE-dextran method was used for transient transfection of COS-7 cells. See Cullen, B. Meth. Enzymol. 152, 684-704 (1987). After 48 hours, transfected cells were lysed and homogenized in ice-cold lysis buffer (10 mM Tris HCl, pH 7.4, 5 mM EDTA). The homogenate was centrifuged at 43,000 g for 30 min at 4° C. The resulting pellet was resuspended in lysis buffer, re-homogenized, and re-centrifuged. This pellet was resuspended in an assay buffer containing 50 mM Tris HCl, pH 7.4, 100 mM NaCl, 5 mM EDTA.
See Sidhu, A. et al., J. Eur. J. Pharmacol. 128, 213-220 (1986).

α1-adrenergic receptor = conditions: α1-adrenergic receptor-transfected COS-7 cells; data not shown
[7] = ~0.3 nM [^125 I]SCH23982, 1 hr, room temperature, means of 2-5 independent determinations, one-site model, read-out: Kd (apparent equilibrium dissociation constant) for [^125 I]SCH23982 binding sites

Compound: CCN1CCC[C@H]1CNC(=O)c1c(O)c(Cl)cc(Cl)c1OC (racemic) [raclopride]
- Kd [1, 7]: > 72000 nM
- block of dopamine-stimulated adenylyl cyclase activity [2]: not by the D2 antagonist raclopride

Compound: CN1CCc2cc(Cl)c(O)cc2C(c2ccccc2)C1 (stereo not drawn) [[^3 H]SCH23390]
- specific binding to untransfected cells [5]: no specific binding

Compound: CN1CCc2cc([125I])c(O)cc2[C@@H](c2ccccc2)C1 [[^125 I]SCH23982]
- increase in specific binding compared to cells transfected with an antisense construct [6]: 10- to 30 fold

Compound: C=CCc1ccccc1OCC(O)CNC(C)C (stereo not drawn) [alprenolol]
- Kd [1]: 16000 nM

Compound: OCCN1CCN(CC/C=C2/c3ccccc3Sc3ccc(C(F)(F)F)cc32)CC1 [cis-flupenthixol]
- rank order of ligand potency [4]: SCH23390<(+)Butaclamol>Flupenthixol>>Haloperidol

Compound: OCCC1CCN(CC/C=C2/c3ccc(F)cc3Sc3ccc(C(F)(F)F)cc32)CC1 [cis-piflutixol]
- Kd [1, 7]: 0.2 nM

Compound: CNC[C@H](O)c1ccc(O)c(O)c1 [epinephrine]
- stimulation of phosphatidylinositol (PI) metabolism (α1-adrenergic receptor): potently evoked this response

Compound: O=C(CCCN1CCC2(CC1)C(=O)NCN2c1ccccc1)c1ccc(F)cc1 [spiperone]
- Kd [1]: 220 nM

Now from value to compound, other results behind:

- antagonism of agonist-stimulated cAMP production [3]: blocked; also recorded: antagonized
- block of dopamine-stimulated adenylyl cyclase activity [2]: blocked
- potency in competition with [^3 H]SCH23390 (in words) [4]: most potent
Compound: CN1CCc2cc(Cl)c(O)cc2[C@@H](c2ccccc2)C1 [SCH23390]
- rank order of ligand potency [4]: SCH23390<(+)Butaclamol>Flupenthixol>>Haloperidol

- stimulation of adenylyl cyclase activity (in words) ([2]; SKF38393 and quinpirole, 1 μM each): also stimulated enzyme activity
Compound: Oc1cc2c(cc1O)C(c1ccccc1)CNCC2 (stereo not drawn) [SKF38393]

- potency in competition with [^3 H]SCH23390 (in words) [4]: most potent
Compound: Oc1ccc(C2CNCCc3c2cc(O)c(O)c3Cl)cc1 (stereo not drawn) [SKF82526]
